Source: patent US11419921B2, “Methods of treating neurological disorders” (EnClear Therapies, Inc., priority 2018, dated 2022)

Experiments:
[1] = tested on: (GR)10; assay: Cleavage of (GR)10 by enzymes in solution (PBS with CaCl2 and MgCl2), LC/MS of GR repeats; assay type: biochemical; conditions: for (GR)1 concentration / (GR)2 concentration / (GR)4 concentration / (GR)6 concentration / (GR)8 concentration / (GR)10 concentration: (GR)10 50 μM; for (GR)1 / (GR)2 / (GR)3 / (GR)4 / (GR)5 / (GR)6 / (GR)8 / (GR)10: PBS, normalized
Procedure: • (GR)10 dipeptide (also (GR)8, (GR)6, (GR)4, (GR)2) were synthetized by solid-phase synthesis by CanPeptide; All peptides are uncapped and supplied lyophilized with TFA as counter ions. Purity was always above 95%. • Buffer: PBS buffer containing CaCl2 and MgCl2. • Stock solution of enzyme (e.g., 10 mg/mL) (prepared per manufacturer instructions) in PBS. Activators added as necessary. • Working solution of protein of the desired concentration (e.g., 100 μg/mL) prepared immediately before use by diluting the stock solution (e.g., 5 μL of 10 mg/mL stock solution) in PBS buffer (e.g., in 495 μL of PBS). Exemplary Procedure Using 50 μM Concentrations of (GR)10
25 μL of a 100 μM solution of (GR)10 was added to each well of a 96-well plate. 25 μL of a solution of enzyme (two times the desired final enzyme concentration) was added, and the plates were incubated at room temperature. At the specified time points (5 minutes, 10 minutes, 30 minutes, 60 minutes, and 180 minutes) 2.5 μL of a 10% TFA solution were added to stop the reaction. For the time 0 min well, the TFA was added to the well before addition of the enzyme. After last time point, all samples were further diluted with 150 μL of dilution solution. The quenched reaction mixtures were analyzed by LC/MS to determine the concentration of GR repeats of different lengths.
The chromatography and mass spectrometry conditions utilized are shown in Table 2 and Table 3, respectively.

[2] = tested on: (GR)10; assay: (GR)10 digestion with immobilized proteases in human cerebrospinal fluid (CSF); assay type: biochemical; conditions: immobilized enzyme
Procedure: Protease solutions were prepared at 2 mg/mL in sterile PBS with calcium, magnesium and 200 μL ([…]) were applied to 100 μL of pre-washed NHS-activated agarose resin in 0.8 mL centrifuge columns. Reactions were left 1.5 hour at room temperature with end-to-end mixing, after which resins were washed with 12 resin volumes of PBS. Unreacted sites were blocked with 500 μL of 1M ethanolamine for 15 minutes at room temperature and resins were further washed with 24 resin volumes. Resins were stored at 4 degrees in 500 μL of PBS containing 0.05% sodium azide as preservative.
200 μM of (GR)10 were diluted in human cerebrospinal fluid (CSF) and 400 μL were applied to each immobilized proteases. The reaction was incubated 5 minutes at room temperature with end-to-end mixing. Columns were spun down 1 minute at 1,000 Xg to recover digested GR dipeptides. Columns were washed with 12 resin volumes of PBS. The procedure was repeated with 60 minutes digestion time. 100 μL of each samples were transferred to a clean tube, flash-frozen and subsequently used for LC/MS quantification of GR repeats of different lengths. The remaining 300 μL of each samples were flash-frozen and used to assess neuron toxicity.
(GR)10 was digested with exemplary immobilized enzymes as described above in the subsection titled “(GR)10 digestion with immobilized proteases in CSF” of Example 3. Clostripain experiments were conducted with and without DTT activation (no DTT during digestion). The results obtained after 5 and 60 minutes of reaction time are presented in Table 25 and shown in FIG. 5 (commercial and in-house immobilized trypsin), FIG. 6 (immobilized elastase, FIG. 7A (immobilized clostripain without DTT) and FIG. 7 (immobilized clostripain with 2.5 mM DTT).

Elastase: protease that cleaves at the carboxyl side of small hydrophobic amino acids; in Table 22 also immobilized on agarose resin
(GR)1 concentration ([1]; enzyme 2.5 μg/mL, 0 min): BLQ
(GR)2 concentration ([1]; enzyme 2.5 μg/mL, 0 min): BLQ
(GR)4 concentration ([1]; enzyme 2.5 μg/mL, 0 min): BLQ
(GR)6 concentration ([1]; enzyme 2.5 μg/mL, 0 min): BLQ
(GR)8 concentration ([1]; enzyme 2.5 μg/mL, 0 min): BLQ
(GR)10 concentration ([1]; enzyme 2.5 μg/mL, 0 min): 53.8 µM
(GR)1 concentration ([1]; enzyme 2.5 μg/mL, 5 min): 0.2 µM
(GR)2 concentration ([1]; enzyme 2.5 μg/mL, 5 min): 0.2 µM
(GR)4 concentration ([1]; enzyme 2.5 μg/mL, 5 min): BLQ
(GR)6 concentration ([1]; enzyme 2.5 μg/mL, 5 min): BLQ
(GR)8 concentration ([1]; enzyme 2.5 μg/mL, 5 min): 0.3 µM
(GR)10 concentration ([1]; enzyme 2.5 μg/mL, 5 min): 52.6 µM
(GR)1 concentration ([1]; enzyme 2.5 μg/mL, 10 min): 0.3 µM
(GR)2 concentration ([1]; enzyme 2.5 μg/mL, 10 min): 0.2 µM
(GR)4 concentration ([1]; enzyme 2.5 μg/mL, 10 min): 0.2 µM
(GR)6 concentration ([1]; enzyme 2.5 μg/mL, 10 min): BLQ
(GR)8 concentration ([1]; enzyme 2.5 μg/mL, 10 min): 0.6 µM
(GR)10 concentration ([1]; enzyme 2.5 μg/mL, 10 min): 52.5 µM
(GR)1 concentration ([1]; enzyme 2.5 μg/mL, 30 min): 1.3 µM
(GR)2 concentration ([1]; enzyme 2.5 μg/mL, 30 min): 0.8 µM
(GR)4 concentration ([1]; enzyme 2.5 μg/mL, 30 min): 0.7 µM
(GR)6 concentration ([1]; enzyme 2.5 μg/mL, 30 min): 0.7 µM
(GR)8 concentration ([1]; enzyme 2.5 μg/mL, 30 min): 0.6 µM
(GR)10 concentration ([1]; enzyme 2.5 μg/mL, 30 min): 43.6 µM
(GR)1 concentration ([1]; enzyme 2.5 μg/mL, 60 min): 2.3 µM
(GR)2 concentration ([1]; enzyme 2.5 μg/mL, 60 min): 1.4 µM
(GR)4 concentration ([1]; enzyme 2.5 μg/mL, 60 min): 1.4 µM
(GR)6 concentration ([1]; enzyme 2.5 μg/mL, 60 min): 1.0 µM
(GR)8 concentration ([1]; enzyme 2.5 μg/mL, 60 min): 1.6 µM
(GR)10 concentration ([1]; enzyme 2.5 μg/mL, 60 min): 35.3 µM
(GR)1 concentration ([1]; enzyme 2.5 μg/mL, 120 min): 4.3 µM
(GR)2 concentration ([1]; enzyme 2.5 μg/mL, 120 min): 2.1 µM
(GR)4 concentration ([1]; enzyme 2.5 μg/mL, 120 min): 2.3 µM
(GR)6 concentration ([1]; enzyme 2.5 μg/mL, 120 min): 1.5 µM
(GR)8 concentration ([1]; enzyme 2.5 μg/mL, 120 min): 2.5 µM
(GR)10 concentration ([1]; enzyme 2.5 μg/mL, 120 min): 24.9 µM
(GR)1 concentration ([1]; enzyme 10 μg/mL, 0 min): BLQ
(GR)2 concentration ([1]; enzyme 10 μg/mL, 0 min): BLQ
(GR)4 concentration ([1]; enzyme 10 μg/mL, 0 min): BLQ
(GR)6 concentration ([1]; enzyme 10 μg/mL, 0 min): BLQ
(GR)8 concentration ([1]; enzyme 10 μg/mL, 0 min): BLQ
(GR)10 concentration ([1]; enzyme 10 μg/mL, 0 min): 41.6 µM
(GR)1 concentration ([1]; enzyme 10 μg/mL, 5 min): 0.8 µM
(GR)2 concentration ([1]; enzyme 10 μg/mL, 5 min): 0.5 µM
(GR)4 concentration ([1]; enzyme 10 μg/mL, 5 min): 0.5 µM
(GR)6 concentration ([1]; enzyme 10 μg/mL, 5 min): 0.4 µM
(GR)8 concentration ([1]; enzyme 10 μg/mL, 5 min): 0.9 µM
(GR)10 concentration ([1]; enzyme 10 μg/mL, 5 min): 50.5 µM
(GR)1 concentration ([1]; enzyme 10 μg/mL, 10 min): 1.4 µM
(GR)2 concentration ([1]; enzyme 10 μg/mL, 10 min): 0.8 µM
(GR)4 concentration ([1]; enzyme 10 μg/mL, 10 min): 0.7 µM
(GR)6 concentration ([1]; enzyme 10 μg/mL, 10 min): 0.8 µM
(GR)8 concentration ([1]; enzyme 10 μg/mL, 10 min): 0.9 µM
(GR)10 concentration ([1]; enzyme 10 μg/mL, 10 min): 37.8 µM
(GR)1 concentration ([1]; enzyme 10 μg/mL, 30 min): 5.1 µM
(GR)2 concentration ([1]; enzyme 10 μg/mL, 30 min): 2.5 µM
(GR)4 concentration ([1]; enzyme 10 μg/mL, 30 min): 2.2 µM
(GR)6 concentration ([1]; enzyme 10 μg/mL, 30 min): 1.6 µM
(GR)8 concentration ([1]; enzyme 10 μg/mL, 30 min): 2.8 µM
(GR)10 concentration ([1]; enzyme 10 μg/mL, 30 min): 21.1 µM
(GR)1 concentration ([1]; enzyme 10 μg/mL, 60 min): 8.3 µM
(GR)2 concentration ([1]; enzyme 10 μg/mL, 60 min): 3.7 µM
(GR)4 concentration ([1]; enzyme 10 μg/mL, 60 min): 2.8 µM
(GR)6 concentration ([1]; enzyme 10 μg/mL, 60 min): 2.2 µM
(GR)8 concentration ([1]; enzyme 10 μg/mL, 60 min): 3.3 µM
(GR)10 concentration ([1]; enzyme 10 μg/mL, 60 min): 12.2 µM
(GR)1 concentration ([1]; enzyme 10 μg/mL, 120 min): 15.1 µM
(GR)2 concentration ([1]; enzyme 10 μg/mL, 120 min): 6.3 µM
(GR)4 concentration ([1]; enzyme 10 μg/mL, 120 min): 3.2 µM
(GR)6 concentration ([1]; enzyme 10 μg/mL, 120 min): 2.0 µM
(GR)8 concentration ([1]; enzyme 10 μg/mL, 120 min): 1.3 µM
(GR)10 concentration ([1]; enzyme 10 μg/mL, 120 min): 2.4 µM
(GR)1 ([1]; in solution - 5 min reaction): 1.4 µM
(GR)2 ([1]; in solution - 5 min reaction): 2.9 µM
(GR)3 ([1]; in solution - 5 min reaction): 2.1 µM
(GR)4 ([1]; in solution - 5 min reaction): 3.1 µM
(GR)5 ([1]; in solution - 5 min reaction): 2.3 µM
(GR)6 ([1]; in solution - 5 min reaction): 4.4 µM
(GR)8 ([1]; in solution - 5 min reaction): 6.8 µM
(GR)10 ([1]; in solution - 5 min reaction): 213.3 µM
(GR)1 ([1]; in solution - 60 min reaction): 5.4 µM
(GR)2 ([1]; in solution - 60 min reaction): 12.8 µM
(GR)3 ([1]; in solution - 60 min reaction): 8.5 µM
(GR)4 ([1]; in solution - 60 min reaction): 8.8 µM
(GR)5 ([1]; in solution - 60 min reaction): 6.0 µM
(GR)6 ([1]; in solution - 60 min reaction): 9 µM
(GR)8 ([1]; in solution - 60 min reaction): 12.8 µM
(GR)10 ([1]; in solution - 60 min reaction): 21.6 µM
(GR)1 (normalized uM) ([2]; 5 min reaction): 57.4 µM
(GR)2 (normalized uM) ([2]; 5 min reaction): 29.4 µM
(GR)3 (normalized uM) ([2]; 5 min reaction): 20.7 µM
(GR)4 (normalized uM) ([2]; 5 min reaction): 22 µM
(GR)5 (normalized uM) ([2]; 5 min reaction): 10.5 µM
(GR)6 (normalized uM) ([2]; 5 min reaction): 0.0 µM
(GR)8 (normalized uM) ([2]; 5 min reaction): 0.0 µM
(GR)10 (normalized uM) ([2]; 5 min reaction): 0.0 µM
(GR)1 (normalized uM) ([2]; 60 min reaction): 200.3 µM
(GR)2 (normalized uM) ([2]; 60 min reaction): 6 µM
(GR)3 (normalized uM) ([2]; 60 min reaction): 0.0 µM
(GR)4 (normalized uM) ([2]; 60 min reaction): 0.0 µM
(GR)5 (normalized uM) ([2]; 60 min reaction): 0.0 µM
(GR)6 (normalized uM) ([2]; 60 min reaction): 0.0 µM
(GR)8 (normalized uM) ([2]; 60 min reaction): 0.0 µM
(GR)10 (normalized uM) ([2]; 60 min reaction): 0.0 µM
